Values after ≈ are worked out from the molar mass of the structure shown.
Legend:
E. faecalis [1] = test: qPCR quantification of E. faecalis in feces of 6-OHDA-lesioned rats; type: in vivo, rat; conditions: PIP 10 and 20 mg/kg after 3 weeks, dose-dependent, combination vs L-dopa after 6 weeks
Method: (§1) The damage of rat dopaminergic neurons was assessed by apomorphine (APO, Sigma)‐induced rotation tests at the 5th, 8th, and 11th weeks of experiment.[17] […] The dosages of PIP used in the present study were safe for rats.[21] Rats were treated once a day for 6 weeks. The 6‐OHDA group and sham group were treated with the same volume of substrate solution (0.5% CMC‐Na).
(§2) Fecal microbial genomic DNA was extracted using the TIANamp Stool DNA Kit (TIANGEN). Plasmids containing the target sequences of E. faecalis 16 S rRNA and TDC were prepared (Figure S1A,B). Then, 10‐fold serial dilutions of plasmid were used as the templates to make the standard curves for absolute quantification. Quantitative PCR (qPCR) experiments were performed on 40 ng DNA in 20 μL reactions, following the amplification program: initial denaturation at 95°C for 15 min, 45 cycles of 95°C for 10 s, 58°C for 31 s, 72°C for 30 s, ended with a final extension at 72°C for 10 min. The absolute E. faecalis 16 S rRNA gene and TDC gene copies in fecal DNA samples were calculated based on the standard curves.

E. faecalis [2] = test: qPCR of E. faecalis in feces of E. faecalis-transplanted rats; type: in vivo, rat; conditions: 1 week of administration, combination vs L-dopa alone
Method: as §2

TDC [3] = test: TDC gene expression and specific activity in feces of E. faecalis-transplanted rats; type: in vivo, rat; conditions: 1 week of administration, combination vs L-dopa alone
Method: as §2
(§3) The rat feces were weighed and suspended in lysis buffer. After centrifugation at 800 g for 10 min, the supernatants were collected and added with lysozyme. The mixtures were centrifuged at 12,000 g for 20 min, and the supernatants were obtained for protein concentration determination and the detection of TDC level in rat feces using rat TDC ELISA kit (MM‐71824R1, MEIMIAN). The results are expressed as U/mg protein.

TDC [4] = test: qPCR quantification of TDC in feces of 6-OHDA-lesioned rats; type: in vivo, rat; conditions: PIP dose-dependent, after 3 weeks, vs 6-OHDA
Method: as §1, §2

6-OHDA-lesioned rats = test: Open-field test in 6-OHDA-lesioned rats; type: in vivo, rat; conditions: L-dopa 60 mg/kg, PIP 20 mg/kg, once a day for 6 weeks
Method: Adaptively raised for 1 week, SD rats were randomly divided into two groups: the sham‐operated group (n = 6) and the 6‐OHDA‐lesioned group (n = 36). After deep anesthesia, the rats were stereotaxically injected with 3 μL 6‐OHDA (4 mg/mL in 0.02% ascorbic acid saline; Sigma) into the left striatum following our previously described protocol,[17] and the rats in sham group were injected with 3 μL vehicle (0.02% ascorbic acid saline).
as §1
Open‐field test was conducted on the 2nd day after the rotation test. The movements in 5 min of rats in open‐field apparatus (100 × 100 × 40 cm), including total movement distance (cm) and horizontal velocity (cm/s), were recorded by the TruScan Activity Monitoring System (USA). Abnormal involuntary movements (AIMs) were scored according to the rating system described in Lee's study.[22] […] Then, the dyskinesia behaviors of rats, including axial dystonia, reverse rotation, and limb and masticatory dyskinesia, were evaluated during a 1‐min monitoring period, repeated every 20 min for 2 h. […]

DA in rat striatum = test: Striatal DA content by HPLC-ECD in 6-OHDA-lesioned rats; type: in vivo; conditions: 6 weeks, L-dopa vs 6-OHDA, combination vs L-dopa alone in lesioned striatum
[5] = parameters: method as in PMID 23603295; conditions: previous studies; cited from earlier work
[6] = PIP 10 and 20 mg/kg, rats; cited from earlier work
[7] = target: T1, TDC (from E. faecalis NCTC6783) (Enterococcus faecalis, UniProt P0DTQ4); test: TDC enzyme assay (DA produced from L-dopa); type: biochemical; conditions: 250 μM PIP, L-dopa 0.3 mM, pH 5.5, relative to solvent control
T1 construct: purchased Aladdin
T1 sequence (P0DTQ4 1-620): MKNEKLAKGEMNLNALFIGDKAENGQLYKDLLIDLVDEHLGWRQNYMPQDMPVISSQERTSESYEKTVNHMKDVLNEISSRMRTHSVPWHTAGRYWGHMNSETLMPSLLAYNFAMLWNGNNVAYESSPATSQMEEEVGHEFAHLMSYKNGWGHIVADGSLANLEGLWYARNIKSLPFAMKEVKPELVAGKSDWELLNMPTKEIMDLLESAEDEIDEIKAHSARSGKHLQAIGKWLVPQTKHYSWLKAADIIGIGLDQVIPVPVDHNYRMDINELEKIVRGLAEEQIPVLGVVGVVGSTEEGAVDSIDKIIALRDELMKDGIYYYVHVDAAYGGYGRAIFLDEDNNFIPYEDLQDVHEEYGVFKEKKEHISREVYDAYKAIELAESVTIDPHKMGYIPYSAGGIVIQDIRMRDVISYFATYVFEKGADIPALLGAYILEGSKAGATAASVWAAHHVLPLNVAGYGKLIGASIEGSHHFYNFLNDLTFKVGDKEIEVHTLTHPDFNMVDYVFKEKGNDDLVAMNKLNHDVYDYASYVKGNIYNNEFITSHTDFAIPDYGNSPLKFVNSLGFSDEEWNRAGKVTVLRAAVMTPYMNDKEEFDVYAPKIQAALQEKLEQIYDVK
Method: (§4) TDC (from E. faecalis NCTC6783, Aladdin; 0.02 mg/mL) and PLP (2 mM, Sigma) were pre‐incubated with various concentrations (0.01–250 μM) of PIP in 0.2 M sodium acetate buffer (pH = 5.5) at 37°C for 15 min. […] After 20 min of incubation, the reaction was quenched by diluting 1:10 in methanol containing 0.7% perchloric acid.[25] The mixture was centrifuged at 12,000 g (4°C) for 5 min, and the supernatant was collected for the determination of DA by HPLC‐ECD.

TDC [8] = test: ELISA of TDC specific activity in feces of 6-OHDA-lesioned rats; type: in vivo, rat; conditions: 6-OHDA-lesioned rats after 6 weeks of administration; combination vs L-dopa alone
Method: as §3

MAO = tested on: MAO; parameters: method as in PMID 32099971; conditions: reported; cited from earlier work
[9] = tested on: tyrosine hydroxylase (TH); test: Western blot of tyrosine hydroxylase in lesioned substantia nigra; type: in vivo, rat; conditions: 6-OHDA-lesioned rats, 6 weeks
Method: as §1
The left substantia nigra (SN) of rat was lysed using non‐denaturing lysis buffer, and immunoblotting was performed following the reported protocol.[19] Protein homogenates were subjected to Western blot analysis using antibodies against tyrosine hydroxylase (TH, 1:1000, Sigma) and GAPDH (1:2000, Proteintech). The blots were visualized by a NcmECL Ultra Western blot diction kit (NCM Biotech), and densitometry was analyzed by using the Fusion FX Image system (Vilber Lourmat).

E. faecalis ATCC29212 = test: L-dopa conversion rate in E. faecalis ATCC29212 culture; type: cell-based, Enterococcus faecalis; conditions: 24 h, anaerobic, vs L-dopa alone
Method: (§5) The column was maintained at 40°C.
(§6) The growth control group and negative control group were set. The cultures were incubated at 37°C under an anaerobic environment. The 1 mL of incubation sample and twofold cold acetonitrile were added to terminate the incubation. After centrifugation at 12,000 g for 10 min, the supernatants were collected for HPLC‐FLD analysis.

[10] = L-dopa conversion rate in rat whole blood and tissue homogenates in vitro; type: in vitro ADME; conditions: L-dopa 0.3 mM + PIP 10 or 20 μg/mL, 12 and 24 h, vs L-dopa alone
Method: as §5
(§7) The whole blood, colon contents, jejunum, and brain tissues of SD rats (n = 6) were collected. Colonic contents were pooled and suspended in anaerobic medium (Aobox) at a ratio of 1:20 (g/mL), the mixtures were centrifuged at 800 g (4°C) for 10 min, and then collected the supernatant for culture. Tissues were pooled and weighed, then homogenized with 5 mM phosphate buffer (pH = 7.4) at the ratio of 1:5 (g/ml). […] The intestinal bacterial cultures were incubated in an anaerobic chamber, while tissues or blood incubation systems were incubated at 37°C for 12 and 24 h, and then the incubation was terminated with three‐fold acetonitrile. After centrifugation at 12,000 g for 10 min, the supernatants were collected for HPLC‐FLD analysis.

[11] = tested on: TDC mRNA in E. faecalis ATCC29212; test: RT-qPCR of TDC gene expression in E. faecalis ATCC29212; type: cell-based, Enterococcus faecalis; conditions: PIP 10 or 20 μg/mL, 24 h
Method: as §6
Total RNA was extracted from the culture pellets generated in the experiment described above “Incubation of E. faecalis in vitro” using the RNAprep Pure Cell/Bacteria Kit (TIANGEN). A FastQuant RT Kit (with gDNase) (TIANGEN) was used to transcribe RNA to cDNA. After that, RT–qPCR was conducted using 2 × SuperReal PreMix Plus (TIANGEN) and performed on the CFX Connect™ Real‐Time System (Bio–Rad) following the amplification program: 95°C for 15 min, followed by 40 cycles of 95°C for 10 s, 52°C for 31 s, and 72°C for 30 s. The program ended with a final extension at 72°C for 10 min. The relative gene expression was calculated using the 2^−^ΔΔ^Ct method.

TDC in E. faecalis = test: ELISA of TDC specific activity in E. faecalis ATCC29212; type: cell-based, Enterococcus faecalis; conditions: PIP 10 or 20 μg/mL, 24 h
Method: as §6
The bacterial protein was extracted from the culture pellets generated as described above. After being washed with PBS three times, the bacterial pellets were re‐suspended in 400 μL PBS containing 2% ethanol and incubated in ice bath for 30 min. After centrifugation at 1000 g for 10 min, the sediments were collected and lysed using lysis buffer containing 100 μg/mL lysozyme, then centrifuged at 12,000 g for 20 min to collect the supernatants. After determining the protein concentration using the BCA kit (Beyotime), the assay of TDC level in E. faecalis was performed according to the Microorganism TDC Elisa kit (MM‐925239O2, MEIMIAN) guideline. Briefly, the extracted protein samples were added to the coated wells together with the balance solution and HRP conjugate reagent, then incubated at 37°C. […] After adding the stop solution to each well, the optical density was measured at the wavelength of 450 nm. The specific activity of TDC was calculated based on the standard curve. The results are expressed as U/mg protein.

[12] = tested on: intestinal bacteria of SD rats; test: L-dopa conversion rate in rat intestinal bacteria (feces) culture in vitro; type: cell-based; conditions: 24 h, anaerobic, vs L-dopa alone
Method: as §5, §7

[13] = Solubility limit of PIP in the TDC enzyme assay; type: physicochemical; conditions: 37 °C, pH 5.5, aqueous buffer
Method: as §4

SMILES: N[C@@H](Cc1ccc(O)c(O)c1)C(=O)O [L‐dopa, Levodopa]
- abundance of E. faecalis in feces (qPCR) (E. faecalis [1]): did not show a notable effect
- abundance of E. faecalis in feces (E. faecalis [2]): no significant effect
- expression of TDC in feces (TDC [3]): upregulation
- expression of TDC in feces (qPCR) (TDC [4]): further increased
- movement speed in open field (6-OHDA-lesioned rats): alleviate the bradykinesia
- total movement distance in open field (6-OHDA-lesioned rats): alleviate the bradykinesia
- DA level in striatum (HPLC-ECD) (DA in rat striatum): significantly increased

SMILES: O=C(/C=C/C=C/c1ccc2c(c1)OCO2)N1CCCCC1 [PIP, piperine]
- crossing of the blood-brain barrier [5]: can cross
- tissue distribution [5]: wide tissue distribution
- abundance of E. faecalis in feces (qPCR) (E. faecalis [1]): significantly reduce
- safety of the dosages used [6]: safe
- decrease in TDC activity [7]: 20.95%
- specific activity of TDC in feces (ELISA) (TDC [8]): significantly decrease
- MAO inhibition (MAO): potential to inhibit MAO activity
- lesions of dopaminergic neurons (TH protein level in SN) [9]: efficiently attenuate the lesions
- decrease of CR of L-dopa (E. faecalis ATCC29212; PIP 10 μg/mL + L-dopa 0.3 mM): 17.22%
- decrease of CR of L-dopa (E. faecalis ATCC29212; PIP 20 μg/mL + L-dopa 0.3 mM): 32.01%
- CR of L-dopa in brain homogenate ([10]; rat brain homogenate): no significant difference
- CR of L-dopa in small intestine homogenate ([10]; rat small intestine homogenate): no significant difference
- CR of L-dopa in blood ([10]; rat whole blood): no significant difference
- gene expression of TDC in E. faecalis [11]: reduced
- expression of TDC in feces (qPCR) (TDC [4]): significantly suppressive effect
- specific activity of TDC in E. faecalis (TDC in E. faecalis): reduced
- decrease of conversion rate (CR) of L-dopa ([12]; PIP 10 μg/mL + L-dopa 0.3 mM): 17.02%
- decrease of conversion rate (CR) of L-dopa ([12]; PIP 20 μg/mL + L-dopa 0.3 mM): 27.55%
- solubility [13]: 250 µM (≈ 71.3 µg/mL)

From publication PMC10848080 (CNS Neuroscience & Therapeutics, 2023)
